The results in this text go back to paper PMC12444472, “BCI inhibits MKP3 by targeting the kinase-binding domain and disrupting ERK2 interaction” (The Journal of Biological Chemistry, 2025).

The structures appear in SMILES notation. “And” between values parts separate entries of the source, which are not always exact repeats. Identical values can stand only once.

Assay in all cases: MST affinity measurement
Holding throughout (conditions): one-site binding model, mean ± SD of three experiments

Experiment [1] has as its target T1, MKP1^KBD (Homo sapiens, UniProt P28562).
T1 construct: MKP1(1–141) (MKP1^KBD); made in house; host or cells: Escherichia coli BL21(DE3)
T1 sequence (P28562 1-141): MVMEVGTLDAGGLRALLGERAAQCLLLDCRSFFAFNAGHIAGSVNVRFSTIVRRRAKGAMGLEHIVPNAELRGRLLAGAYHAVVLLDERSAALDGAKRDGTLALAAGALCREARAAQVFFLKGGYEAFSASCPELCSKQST
The procedure:
(§1) MST measurements were performed using fluorescently labeled proteins and the inhibitor BCI (CAS: 1245792-51-1; TargetMol) on a Monolith instrument (NanoTemper Technologies). The RED–Tris–NTA second-generation dye was dissolved in MST buffer (20 mM Hepes, pH 7.4, 200 mM NaCl, and 0.05% Tween-20) to prepare a 5 μM stock solution. Fluorescent labeling of MKP proteins followed the standard protocol of the MO-L018 RED–Tris–NTA protein labeling kit, leveraging the His-tag–dye interaction.
(§2) The BCI compound was prepared as a 600 to 750 μM stock solution in MST buffer with 10% DMSO to enhance solubility, followed by a 16-point serial dilution. The diluted BCI solutions were thoroughly mixed with labeled MKP proteins (50 nM) at a 1:1 volume ratio, yielding a final volume of 10 μl. The reaction mixtures were incubated in the dark for 10 min at room temperature before being loaded into standard glass capillaries. Measurements were carried out on the Monolith instrument (100% LED, 40% IR laser power) with a 20 s laser on time. The normalized fluorescence values from triplicate measurements were averaged at each concentration and fitted to a 1:1 binding model using the KD model in MO.Affinity software (v3.0.5, NanoTemper Technologies) to determine the binding affinities between MKP proteins and the BCI inhibitor. The final reported Kd value represents the mean ± SD of Kd values obtained from three independent experiments, each fitted separately.

Experiment [2] addresses T2, MKP2^KBD (Homo sapiens, UniProt Q13115).
T2 construct: MKP2(5–159) (MKP2^KBD); made in house; host or cells: Escherichia coli BL21(DE3)
T2 sequence (Q13115 5-159): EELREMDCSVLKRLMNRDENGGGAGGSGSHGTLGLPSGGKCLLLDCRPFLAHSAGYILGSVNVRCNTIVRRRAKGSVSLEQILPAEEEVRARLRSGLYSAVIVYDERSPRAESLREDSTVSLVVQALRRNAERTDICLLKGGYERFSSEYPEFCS
The procedure: as §1, §2

The target in experiment [3] is T3, MKP3^FL (Homo sapiens, UniProt Q16828).
T3 construct: MKP3(1–381) (MKP3^FL); made in house; host or cells: Escherichia coli BL21(DE3)
T3 sequence (Q16828 1-381): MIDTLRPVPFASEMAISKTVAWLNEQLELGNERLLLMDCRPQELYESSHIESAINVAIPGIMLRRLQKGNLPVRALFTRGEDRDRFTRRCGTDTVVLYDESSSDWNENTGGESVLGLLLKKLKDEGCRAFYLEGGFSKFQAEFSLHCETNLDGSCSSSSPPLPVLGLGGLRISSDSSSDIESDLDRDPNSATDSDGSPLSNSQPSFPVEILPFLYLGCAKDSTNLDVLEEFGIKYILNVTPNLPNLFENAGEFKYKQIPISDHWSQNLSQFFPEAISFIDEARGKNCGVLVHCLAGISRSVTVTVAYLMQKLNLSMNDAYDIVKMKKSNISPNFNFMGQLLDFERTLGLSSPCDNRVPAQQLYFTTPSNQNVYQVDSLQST
The procedure: as §1, §2

Experiment [4] concerns the target T4, MKP3^KBD (Homo sapiens, UniProt Q16828).
T4 construct: MKP3(1–154) (MKP3^KBD); made in house; host or cells: Escherichia coli BL21(DE3)
T4 sequence (Q16828 1-154): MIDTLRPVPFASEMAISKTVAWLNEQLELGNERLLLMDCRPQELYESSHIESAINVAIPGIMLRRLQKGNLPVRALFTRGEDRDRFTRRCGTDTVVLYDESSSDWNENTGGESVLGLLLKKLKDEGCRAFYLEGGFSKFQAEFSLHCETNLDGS
The procedure:
as §1, §2

Experiment [5] has as its target T5, MKP5^KBD (Homo sapiens, UniProt Q9Y6W6).
T5 construct: MKP5(139–287) (MKP5^KBD); made in house; host or cells: Escherichia coli BL21(DE3)
T5 sequence (Q9Y6W6 139-287): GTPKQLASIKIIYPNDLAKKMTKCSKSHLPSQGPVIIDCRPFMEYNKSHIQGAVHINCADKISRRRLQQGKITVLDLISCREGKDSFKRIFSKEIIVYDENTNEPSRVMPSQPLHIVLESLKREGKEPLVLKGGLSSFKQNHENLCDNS
The procedure:
as §1, §2

For experiment [6], the target named is T6, MKPX^KBD (Homo sapiens, UniProt Q16829).
T6 construct: MKPX(1–140) (MKPX^KBD); made in house; host or cells: Escherichia coli BL21(DE3)
T6 sequence (Q16829 1-140 isoform Q16829-2): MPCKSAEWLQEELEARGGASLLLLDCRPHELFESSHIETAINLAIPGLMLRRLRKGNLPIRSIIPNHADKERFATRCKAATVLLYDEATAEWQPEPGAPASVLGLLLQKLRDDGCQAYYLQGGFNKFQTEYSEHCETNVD
The procedure: as §1, §2

The term Kd denotes the constant that tells how readily two partners part at equilibrium. Higher therefore signals a looser complex. On to `O=C1/C(=C/c2ccccc2)C(NC2CCCCC2)c2ccccc21` (stereo not drawn) [BCI, (E)-2-benzylidene-3-(cyclohexylamino)-2,3-dihydro-1H-inden-1-one], for which the equilibrium dissociation constant (Kd) was ~73.1 µM and 73.1 µM in experiment [1]; ~49 µM and 49 µM in experiment [2]; 9.2 ± 1.8 µM in experiment [3]; 15 µM and ~15 µM in experiment [4]; ~8.5 µM and 8.5 µM in experiment [5]; ~14.1 µM and 14.1 µM in experiment [6].
